# Experimental data: the Kinase Knowledgebase extract (Sharma et al. 2016)
# Target: CDK2 (human) (UniProt P24941)
# Assay: Enzyme Assay
row,IC50 [µM],Compound
1,≤ 10,CCCS(=O)(=O)Nc1ccc(F)c(C(=O)c2c[nH]c3ncc(OC)cc23)c1F
2,≤ 10,CCCC(=O)Nc1ccc(F)c(Cc2c[nH]c3ncc(-c4cccnc4)cc23)c1F
3,≤ 10,CCCS(=O)(=O)Nc1ccc(F)c(C(OC)c2c[nH]c3ncc(OC)cc23)c1F (centres undefined)
4,≤ 10,OCCOc1ccc(F)c(Cc2c[nH]c3ncc(-c4cccnc4)cc23)c1F

# Target: EGFR (human) (UniProt P00533)
# Assay: not given
# Chain of EGFR (human) (P00533 whole entry, looked up): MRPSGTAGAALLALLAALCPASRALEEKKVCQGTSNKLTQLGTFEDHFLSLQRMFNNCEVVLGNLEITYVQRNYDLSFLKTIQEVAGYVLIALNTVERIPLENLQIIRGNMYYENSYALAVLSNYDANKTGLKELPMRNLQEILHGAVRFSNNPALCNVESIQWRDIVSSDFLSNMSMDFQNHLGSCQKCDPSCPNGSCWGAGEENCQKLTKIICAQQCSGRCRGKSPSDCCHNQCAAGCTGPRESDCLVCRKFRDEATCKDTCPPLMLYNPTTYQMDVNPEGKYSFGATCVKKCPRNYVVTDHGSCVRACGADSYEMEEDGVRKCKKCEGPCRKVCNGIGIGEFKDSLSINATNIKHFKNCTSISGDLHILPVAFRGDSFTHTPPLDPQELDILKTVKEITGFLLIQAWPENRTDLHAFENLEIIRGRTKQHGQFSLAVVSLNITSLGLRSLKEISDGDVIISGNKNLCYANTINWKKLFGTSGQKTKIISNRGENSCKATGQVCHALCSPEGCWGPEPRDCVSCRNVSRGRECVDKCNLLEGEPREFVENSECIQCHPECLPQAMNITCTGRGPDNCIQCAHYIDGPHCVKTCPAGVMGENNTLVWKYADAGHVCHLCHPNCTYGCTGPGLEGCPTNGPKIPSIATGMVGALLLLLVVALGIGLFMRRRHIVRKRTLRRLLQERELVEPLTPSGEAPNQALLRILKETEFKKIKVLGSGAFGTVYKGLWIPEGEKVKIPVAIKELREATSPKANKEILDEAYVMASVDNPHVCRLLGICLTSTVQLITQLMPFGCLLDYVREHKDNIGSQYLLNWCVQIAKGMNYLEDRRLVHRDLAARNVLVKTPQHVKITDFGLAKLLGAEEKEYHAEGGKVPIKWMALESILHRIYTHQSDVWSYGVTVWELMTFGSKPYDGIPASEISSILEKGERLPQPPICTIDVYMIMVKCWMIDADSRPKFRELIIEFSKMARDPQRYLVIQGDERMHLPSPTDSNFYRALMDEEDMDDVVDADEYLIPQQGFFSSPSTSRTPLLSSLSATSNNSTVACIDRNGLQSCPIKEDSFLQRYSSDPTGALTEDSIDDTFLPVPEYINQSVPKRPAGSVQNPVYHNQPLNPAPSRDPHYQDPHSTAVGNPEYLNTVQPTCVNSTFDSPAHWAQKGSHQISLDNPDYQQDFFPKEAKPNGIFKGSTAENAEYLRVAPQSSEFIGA
row,IC50 [µM],Compound
1,≤ 10,COc1ccc(-c2cnc3[nH]cc(C#Cc4ccccc4)c3c2)cc1OC
2,≤ 10,O=C(Nc1ccc(F)c(C(O)c2c[nH]c3ncc(-c4cccnc4)cc23)c1F)OCc1ccccc1 (centres undefined)
3,≤ 10,CCCS(=O)(=O)Nc1ccc(F)c(C(=O)c2c[nH]c3ncc(-c4ccc(OC)cc4)cc23)c1F
4,≤ 10,Nc1cccc(-c2cnc3[nH]cc(C(=O)c4cccc(O)c4)c3c2)c1
5,≤ 10,CC(=O)Nc1cccc(-c2cnc3[nH]cc(C(=O)c4cc(O)ccc4F)c3c2)c1
6,≤ 10,O=C(c1cccc(O)c1)c1c[nH]c2ncc(Nc3ccccc3)cc12
7,≤ 10,Nc1cccc(-c2cnc3[nH]cc(C(=O)c4cccc(O)c4F)c3c2)c1
8,≤ 10,Nc1cccc(-c2cnc3[nH]cc(C(=O)c4cc(O)ccc4F)c3c2)c1

# Target: MAPK14 (human) (UniProt Q16539)
# Assay: Inhibition of MAPK14 Kinase Activity
# Chain of MAPK14 (human) (Q16539 whole entry, looked up): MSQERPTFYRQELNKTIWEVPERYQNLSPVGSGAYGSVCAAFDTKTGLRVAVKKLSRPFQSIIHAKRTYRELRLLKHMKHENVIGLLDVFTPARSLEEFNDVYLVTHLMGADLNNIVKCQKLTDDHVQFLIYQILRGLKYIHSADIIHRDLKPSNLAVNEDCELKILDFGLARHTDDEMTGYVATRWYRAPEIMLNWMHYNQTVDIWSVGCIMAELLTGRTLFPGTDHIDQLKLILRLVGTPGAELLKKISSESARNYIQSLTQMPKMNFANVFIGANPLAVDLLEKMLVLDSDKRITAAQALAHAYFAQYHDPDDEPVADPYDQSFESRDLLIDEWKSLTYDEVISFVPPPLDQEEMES
row,IC50 [µM],Compound
1,≤ 10,CCCS(=O)(=O)Nc1ccc(F)c(C(=O)c2c[nH]c3ncc(OC)cc23)c1F
2,≤ 10,Nc1cccc(-c2cnc3[nH]cc(C(=O)c4cccc(O)c4)c3c2)c1
3,≤ 10,CC(=O)Nc1cccc(-c2cnc3[nH]cc(C(=O)c4cc(O)ccc4F)c3c2)c1
4,≤ 10,O=C(c1cccc(O)c1)c1c[nH]c2ncc(Nc3ccccc3)cc12
5,≤ 10,Nc1cccc(-c2cnc3[nH]cc(C(=O)c4cccc(O)c4F)c3c2)c1
6,≤ 10,Cc1ccc(F)cc1C(=O)c1c[nH]c2ncc(-c3ccc(C(N)=O)cc3)cc12
7,≤ 10,Nc1cccc(-c2cnc3[nH]cc(C(=O)c4ccc5nsnc5c4)c3c2)c1
8,≤ 10,O=C(c1cc(O)ccc1F)c1c[nH]c2ncc(-c3ccccc3)cc12
9,≤ 10,CCc1cnc2[nH]cc(C(=O)c3cccc(O)c3)c2c1
10,≤ 10,Nc1cccc(-c2cnc3[nH]cc(C(=O)c4cc(O)ccc4F)c3c2)c1
11,≤ 10,COc1cccc(CCc2c[nH]c3ncc(-c4ccsc4)cc23)c1
12,≤ 10,CS(=O)(=O)Nc1ccc(F)c(C(=O)c2c[nH]c3ncc(-c4cccc(C(N)=O)c4)cc23)c1F
13,≤ 10,O=S(=O)(NCc1c[nH]c2ncccc12)c1cc(Cl)c(Cl)s1
14,≤ 10,O=C(c1cccc(NCc2ccccc2)c1)c1c[nH]c2ncccc12
15,≤ 10,Cc1c(NS(C)(=O)=O)cccc1C(=O)c1c[nH]c2ncc(-c3ccccc3)cc12
16,≤ 10,CS(=O)(=O)Nc1cccc(-c2cnc3[nH]cc(C(=O)c4c(Cl)ccc(NS(C)(=O)=O)c4F)c3c2)c1

row,IC50 [µM],Compound
1,≤ 10,Oc1cc(O)cc(Cc2c[nH]c3ncc(-c4ccsc4)cc23)c1
2,≤ 10,COc1cc(O)cc(Cc2c[nH]c3ncc(-c4ccsc4)cc23)c1
3,≤ 10,Cc1nc(-c2ccnc3[nH]ccc23)no1
4,≤ 10,COc1ccc(F)c(C(=O)c2c[nH]c3ncc(-c4cccnc4)cc23)c1
5,≤ 10,CS(=O)(=O)c1cccc(-c2cnc3[nH]cc(C(=O)c4cccc(O)c4F)c3c2)c1
6,≤ 10,Nc1ccc(F)c(C(=O)c2c[nH]c3ncc(-c4cccnc4)cc23)c1F
7,≤ 10,O=C(c1cc(O)ccc1F)c1c[nH]c2ncc(-c3ccsc3)cc12
8,≤ 10,c1cnc2ccc(Nc3ccnc4[nH]ccc34)cc2c1
9,≤ 10,CS(=O)(=O)c1cccc(-c2cnc3[nH]cc(C(=O)c4cc(O)ccc4F)c3c2)c1
10,≤ 10,NC(=O)c1cccc(-c2cnc3[nH]cc(C(=O)c4cccc(O)c4F)c3c2)c1
11,≤ 10,CS(=O)(=O)Nc1ccc(F)c(C(=O)c2c[nH]c3ncc(Br)cc23)c1
12,≤ 10,Brc1ccc(C=Cc2c[nH]c3ncccc23)cc1
13,≤ 10,Cc1cccc(N(C)c2ccnc3[nH]ccc23)c1
14,≤ 10,CS(=O)(=O)Nc1ccc(F)c(C(=O)c2c[nH]c3ncc(-c4cccc(S(C)(=O)=O)c4)cc23)c1
15,≤ 10,CS(=O)(=O)Nc1cccc(-c2cnc3[nH]cc(C(=O)c4c(F)ccc(NS(C)(=O)=O)c4F)c3c2)c1
16,≤ 10,CCCS(=O)(=O)Nc1ccc(F)c(C(=O)c2c[nH]c3ncc(-c4cccnc4)cc23)c1F
